Values quoted from earlier work, collected in patent US20230413809A1, “DISINFECTANT COMPOSITION FOR SURFACES AND THE PREPARATION THEREOF” (Onyx Lotus, LLC, priority 2020, published 2023).

Settings: general statement on surfactant detergency, no test described

| Structure (SMILES) | Critical micellar concentration (CMC) [mM] |
| --- | --- |
| CCCCCCCCCCCCCCCC[N+](C)(C)C.[Br-] [CTAB, cetyltrimethylammonium bromide] | 0.92 |
| O=C([O-])CC(C(=O)[O-])S(=O)(=O)O.[Na+].[Na+] (centres unmarked) [sodium sulfosuccinate] | 0.6 |
